# Results reported in PubChem BioAssay (NCI).
#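 1) Cells in 96-well plates. 2) Compound, 48 h, 5 concentrations. 3) Linear interpolation between surrounding doses. 4) Unreached endpoint = highest concentration. Abbreviation: GI50, concentration required for 50% inhibition of growth. TGI is the concentration that stops growth completely.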
# Tests used:
# Assay in all cases: NCI-60 cell line screen, 48 h
# [1] = test system: KM12 colon
# [2] = test system: BT-549 breast
# [3] = test system: HOP-92 NSCLC
# [4] = test system: OVCAR-5 ovarian
# [5] = test system: T-47D breast
# [6] = test system: A549 NSCLC
# [7] = test system: MCF7 breast
# [8] = test system: NCI-H23 lung
# [9] = test system: EKVX NSCLC
# [10] = test system: PC-3 prostate
# [11] = test system: HCT-116 colon
# [12] = test system: UO-31 renal
# [13] = test system: M14 melanoma
# [14] = test system: SK-MEL-2 melanoma
# [15] = test system: SK-MEL-5 melanoma
# [16] = test system: DU-145 prostate
# [17] = test system: CAKI-1 renal
# [18] = test system: SF-295 CNS
# [19] = test system: SK-OV-3 ovarian
Compound,TGI [1],TGI [2],TGI [3],TGI [4],TGI [5],TGI [6],TGI [7],TGI [8],TGI [9],TGI [10],TGI [11],TGI [12],TGI [13],TGI [14],TGI [15],GI50 [16],TGI [16],TGI [17],TGI [18],TGI [19]
CCOC(=O)CCC(NC(=O)C(CCC(=O)OCC)NC(=O)C(Cc1ccc([N+](=O)[O-])cc1)NC(C)=O)C(=O)NNC(=O)OC(C)(C)C (stereo unspecified),> 100 µM,> 100 µM,> 100 µM,> 100 µM,> 100 µM,> 100 µM,> 100 µM,> 100 µM,> 100 µM,> 100 µM,> 100 µM,> 100 µM,> 100 µM,> 100 µM,> 100 µM,–,–,–,–,–
O=C1CC(C(O)C(O)C(O)CO)CC(=O)N1 (stereo unspecified),> 100 µM,> 100 µM,> 100 µM,> 100 µM,> 100 µM,> 100 µM,> 100 µM,> 100 µM,> 100 µM,> 100 µM,> 100 µM,> 100 µM,> 100 µM,–,> 100 µM,> 100 µM,> 100 µM,> 100 µM,> 100 µM,–
COc1ccc2c(c1)OCC1=C2Oc2ccccc2C1,> 100 µM,71.5 µM,–,88.8 µM,> 100 µM,> 100 µM,–,> 100 µM,> 100 µM,> 100 µM,> 100 µM,> 100 µM,> 100 µM,77.5 µM,28.3 µM,–,> 100 µM,> 100 µM,> 100 µM,> 100 µM
Cc1cccc(-c2cccc(COCc3cccc(-c4cccc(CO)n4)n3)n2)n1,> 50 µM,> 50 µM,> 50 µM,> 50 µM,> 50 µM,> 50 µM,> 50 µM,–,> 50 µM,> 50 µM,> 50 µM,> 50 µM,> 50 µM,> 50 µM,> 50 µM,–,> 50 µM,> 50 µM,> 5 µM,> 50 µM
O=C(O)COc1cc(-c2ccccc2F)nc2cc3c(cc12)OCO3,> 100 µM,> 100 µM,> 100 µM,> 100 µM,> 100 µM,> 100 µM,> 100 µM,> 100 µM,> 100 µM,> 100 µM,> 100 µM,–,> 100 µM,> 100 µM,> 100 µM,–,> 100 µM,> 100 µM,> 100 µM,> 100 µM
Clc1ccc(-c2c3nc(c(-c4ccc(Cl)cc4)c4ccc([nH]4)c(-c4ccc(Cl)cc4)c4nc(c(-c5ccc(Cl)cc5)c5ccc2[nH]5)C=C4)C=C3)cc1,> 100 µM,> 100 µM,> 100 µM,> 100 µM,> 100 µM,> 100 µM,> 100 µM,> 100 µM,> 100 µM,> 100 µM,–,> 100 µM,> 100 µM,> 100 µM,> 100 µM,–,–,> 100 µM,> 100 µM,> 100 µM
CC(SC(=S)N(C)C)C(=O)Nc1nnc(-c2ccc(Cl)cc2)o1 (stereo unspecified),–,> 100 µM,> 100 µM,> 100 µM,> 100 µM,> 100 µM,> 100 µM,> 100 µM,–,> 100 µM,> 100 µM,> 100 µM,> 100 µM,> 100 µM,> 100 µM,–,> 100 µM,–,–,> 100 µM
CC1OC1P(=O)(O)O (stereo unspecified),> 100 µM,> 100 µM,> 100 µM,> 100 µM,> 100 µM,> 100 µM,> 100 µM,> 100 µM,> 100 µM,> 100 µM,> 100 µM,> 100 µM,–,> 100 µM,> 100 µM,–,> 100 µM,> 100 µM,> 100 µM,> 100 µM
CCCCCCCCCCCCCCCCOP(=O)(O)OP(=O)(O)OCC1OC(n2cnc3c(N)ncnc32)C(O)C1O (stereo unspecified),> 100 µM,36.9 µM,36.7 µM,47.4 µM,> 100 µM,> 100 µM,> 100 µM,> 100 µM,> 100 µM,> 100 µM,> 100 µM,> 100 µM,> 100 µM,> 100 µM,> 100 µM,–,> 100 µM,> 100 µM,–,> 100 µM
Cc1c2ccccc2c(CSC(=N)N)c2ccccc12,0.545 µM,3.72 µM,1.43 µM,1.13 µM,5.32 µM,1.62 µM,0.518 µM,0.272 µM,1.33 µM,0.829 µM,1.35 µM,0.511 µM,0.537 µM,0.375 µM,0.331 µM,–,0.406 µM,–,2.29 µM,2.67 µM
COc1ccc(OC)c2sc(N3C(=O)/C(=C/c4ccc(SC)cc4)N=C3c3ccccc3)nc12,52.5 µM,88 µM,> 100 µM,> 100 µM,87 µM,53.9 µM,48.1 µM,–,> 100 µM,50.6 µM,41.3 µM,63.7 µM,46.1 µM,42.7 µM,33.8 µM,–,> 100 µM,> 100 µM,> 100 µM,> 100 µM
NNC(=O)CC(=O)Nc1ccccc1Cl,> 100 µM,> 100 µM,> 100 µM,> 100 µM,> 100 µM,> 100 µM,> 100 µM,> 100 µM,> 100 µM,> 100 µM,> 100 µM,> 100 µM,–,> 100 µM,> 100 µM,–,> 100 µM,> 100 µM,> 100 µM,> 100 µM
CCCCC1CCCCCCc2[nH]c(/C=C3\N=C(c4ccc[nH]4)C=C3OC)cc21 (stereo unspecified),4.91 µM,1.29 µM,0.42 µM,2 µM,2.06 µM,0.0354 µM,1.11 µM,1.28 µM,1.73 µM,2.09 µM,0.0531 µM,0.071 µM,–,< 0.0237 µM,0.107 µM,–,3.96 µM,4.32 µM,1.17 µM,7.37 µM
